Results from PMC9611521, “Optimization of Resveratrol Used as a Scaffold to Design Histone Deacetylase (HDAC-1 and HDAC-2) Inhibitors” (Pharmaceuticals, 2022).

Biological target: T1, HDAC-8 (Homo sapiens, UniProt Q9BY41)
T1 sequence (Q9BY41 1-377): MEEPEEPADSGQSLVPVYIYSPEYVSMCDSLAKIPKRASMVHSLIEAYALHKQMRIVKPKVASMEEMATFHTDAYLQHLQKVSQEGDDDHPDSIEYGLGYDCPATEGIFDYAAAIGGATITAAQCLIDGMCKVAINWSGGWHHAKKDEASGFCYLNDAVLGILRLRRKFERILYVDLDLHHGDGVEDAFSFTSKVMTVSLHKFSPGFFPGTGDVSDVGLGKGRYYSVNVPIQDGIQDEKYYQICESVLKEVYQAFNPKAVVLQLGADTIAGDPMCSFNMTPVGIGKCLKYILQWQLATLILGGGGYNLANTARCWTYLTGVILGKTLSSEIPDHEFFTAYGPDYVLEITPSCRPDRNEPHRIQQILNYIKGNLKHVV
Test: Enzymatic HDAC selectivity panel, HDAC-8
Type: biochemical
Details: compound at 10 µM
Experimental: Enzymatic assays to evaluate HDAC inhibition were performed, and the design involved three steps: (a) Preliminary screening to identify the most promising compounds; (b) Evaluation by a panel of HDAC isoforms to investigate selectivity; and (c) Determination of IC50 values. Firstly, compounds (4–7; 15–26) were evaluated at 10 µM against HDAC-1 and HDAC-2 (Table 2).
The enzymatic assay to evaluate HDAC inhibitory effects for all final compounds against the distinct isoforms was carried out in accordance with the previously described procedures (Lopes et al., 2021). All compounds were initially screened at 10 µM against HDAC-1 and HDAC-2. […] All the compounds were dissolved in DMSO. A serial dilution of the compounds was performed in 100% DMSO with the highest concentration at 1 mM. Each intermediate compound dilution (in 100% DMSO) was diluted 10x in assay buffer to form a 10% DMSO intermediate dilution in HDAC assay buffer. 5 µL of this dilution was added to a 50 µL reaction to bring the final concentration of DMSO to 1% in all the reactions. […] The fluorescence intensity was measured at an excitation of 360 nm and emission of 460 nm using a Tecan Infinite M1000 microplate reader, and the percentage of activity was calculated using the formula: % activity = (F − Fb)/(Ft − Fb), where F = the intensity of fluorescence in the presence of the compound. […]

Nc1ccc(CCc2ccc(C(=O)Nc3ccccc3N)cc2)cc1 [Compound (5)]
inhibition at 10 µM: 13 ± 1%
